Measured values: patent publication US12180196B2, “Azetidine-substituted pyridine and pyrazine compounds as inhibitors of cannabinoid receptor 2” (HOFFMANN-LA ROCHE INC., priority 2018, dated 2024)

Molecular target: human CB2 (Homo sapiens (Human), UniProt P34972)
Test: Radioligand binding assay, human CB2 (CNR2) membranes, [3H]-CP-55,940
Conditions: HEK cell membranes, [3H]-CP-55,940 radioligand
Protocol: Radioligand Binding Assay
The affinity of the compounds of the invention for cannabinoid CB1 receptors was determined using recommended amounts of membrane preparations (PerkinElmer) of human embryonic kidney (HEK) cells expressing the human CNR1 or CNR2 receptors in conjunction with 1.5 or 2.6 nM [3H]-CP-55,940 (Perkin Elmer) as radioligand, respectively. Binding was performed in binding buffer (50 mM Tris, 5 mM MgCl2, 2.5 mM EDTA, and 0.5% (wt/vol) fatty acid free BSA, pH 7.4 for CB1 receptor and 50 mM Tris, 5 mM MgCl2, 2.5 mM EGTA, and 0.1% (wt/vol) fatty acid free BSA, pH 7.4 for CB2 receptor) in a total volume of 0.2 ml for 1 h at 30° C. shaking. The reaction was terminated by rapid filtration through microfiltration plates coated with 0.5% polyethylenimine (UniFilter GF/B filter plate; Packard). Bound radioactivity was analyzed for Ki using nonlinear regression analysis (Activity Base, ID Business Solution, Limited), with the Kd values for [3H]CP55,940 determined from saturation experiments. The compounds of formula (I) show an excellent affinity for the CB2 receptor.
The compounds according to formula (I) have an activity in the above assay (Ki) between 0.5 nM and 10 μM. Particular compounds of formula (I) have an activity in the above assay (Ki) between 0.5 nM and 3 μM. Other particular compounds of formula (I) have an activity in the above assay (Ki) between 0.5 nM and 100 nM.

human CB2, sequence (P34972 whole entry): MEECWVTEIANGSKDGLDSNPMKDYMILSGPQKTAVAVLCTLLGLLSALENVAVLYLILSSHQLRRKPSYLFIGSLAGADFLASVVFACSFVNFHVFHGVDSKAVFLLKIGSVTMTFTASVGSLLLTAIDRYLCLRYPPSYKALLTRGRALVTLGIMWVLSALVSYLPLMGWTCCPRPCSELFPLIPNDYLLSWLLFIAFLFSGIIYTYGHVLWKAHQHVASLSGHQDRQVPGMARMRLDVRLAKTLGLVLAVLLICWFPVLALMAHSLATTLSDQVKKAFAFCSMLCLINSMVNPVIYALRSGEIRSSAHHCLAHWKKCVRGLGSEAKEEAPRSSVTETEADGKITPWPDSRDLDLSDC

| Ki | Structure (SMILES) |
| --- | --- |
| 5 nM | CCOC(=O)C(CC)(CC)NC(=O)c1ccc(N2CC(OCCF)C2)c(OCC2CC2)n1 [Example 2, Ethyl 2-({6-(cyclopropylmethoxy)-5-[3-(2-fluoroethoxy)azetidin-1-yl]pyridine-2-carbonyl}amino)-2-ethylbutanoate] |
| 6 nM | CCOC(=O)C(CC)(CC)NC(=O)c1ccc(N2CC(F)C2)c(OCC2CC2)n1 [Example 4, Ethyl 2-{[6-(cyclopropylmethoxy)-5-(3-fluoroazetidin-1-yl)pyridine-2-carbonyl]amino}-2-ethylbutanoate] |
| 447 nM | NC(=O)CC1(NC(=O)c2ccc(N3CC(OCCF)C3)c(OCC3CC3)n2)COC1 [Example 5, N-[3-(2-Amino-2-oxoethyl)oxetan-3-yl]-6-(cyclopropylmethoxy)-5-[3-(2-fluoroethoxy)azetidin-1-yl]pyridine-2-carboxamide] |

| Structure (SMILES) | Ki |
| --- | --- |
| CCOC(=O)C(CC)(CC)NC(=O)c1ccc(N2CC(OCCCF)C2)c(OCC2CC2)n1 [Example 1, Ethyl 2-({6-(cyclopropylmethoxy)-5-[3-(3-fluoropropoxy)azetidin-1-yl]pyridine-2-carbonyl}amino)-2-ethylbutanoate] | 19 nM |
